Source: US12162857B2, “Antiviral compounds” (priority 2022, dated 2024)

What was measured:
[1] = test system: HMPV A2 TN/94-49; assay: HMPV antiviral assay: LLC-MK2 cells, ATP-Lite readout; type: cell-based; conditions: LLC-MK2, 168 h, MOI 0.005, 7 days incubation
Procedure, shortened: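 LLC-MK2 cells (5,000/well) were infected in suspension with HMPV A2 TN/94-49 at MOI 0.005 in serum-free OptiMEM with 2 μg/mL final TPCK-trypsin, then incubated for 7 days at 37 °C. Compounds were tested in duplicate from 2 μM in 10-point 2.5-fold dilutions. ATP-Lite luminescence, normalised to virus-only and cells-only controls as % cell health, gave EC50 by four-parameter fit.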

[2] = test system: Human RSV-A (“Long” strain); assay: RSV-A assay: CPE in Hep-2 cells, ATPlite readout; type: cell-based; conditions: human respiratory syncytial virus, 120 h, MOI 0.1, 5-day incubation
From the text: Hep-2 cells, (originally derived from tumors grown in irradiated-cortisonised weanling rats that had been injected with epidermoid carcinoma tissue from a person's larynx, but later found to be indistinguishable from HeLa cells by PCR DNA analysis), were used for the culturing of genotype A, “Long” strain RSV. Flasks were inoculated with RSV and viral stocks were collected once cytopathic effect (CPE) was greater than 90%. Viral stocks in 25% sucrose media were snap frozen using liquid nitrogen to increase viral stability. Viral stock titers were quantified by tissue culture infectious dose 50% (TCID50) using 8,000 cells per well and 3-fold viral dilutions across a 96-well plate, cultured for 4 days. Viral stock titers were also quantified by a plaque forming unit assay, as described elsewhere.
Following extensive parameter testing, the final assay is run as follows: Hep-2 cells are seeded into the inner 60 wells of a 96-well plate at 8,000 cells per well in a volume of 50 μL using Growth Media (DMEM without phenol red, 1% L-Glut, 1% Penn/Strep, 1% nonessential amino acids, 10% heat-inactivated FBS). 2-fold serial dilutions of control and test compounds are added to the wells in duplicate in a total volume of 25 μL. Viral stock is then added to the wells at a multiplicity of infection (MOI) of 0.1 in a volume of 25 μL, bringing the total volume of each well to 100 μL. The MOI is calculated using the PFU/mL, or TCID50 if unavailable. Each 96-well plate has a control column of 6 wells with cells and virus but no compound (negative control, max CPE), a column with cells but no compound or virus (positive control, minimum CPE), and a column with no cells or virus or compound (background plate/reagent control). The control wells with cells but no virus are given an additional 25 μL of growth media containing an equal quantity of sucrose as those wells receiving the viral stock in order to keep consistent in media and volume conditions. The outer wells of the plate are filled with 125 μL of moat media (DMEM, 100 Penn/Strep) to act as a thermal and evaporative moat around the test wells. Following a 5-day incubation period, the plates are read using ATPlite (50 uL added per well), which quantifies the amount of ATP (a measure of cell health) present in each well. Assay plates are read using the Envision luminometer. […] EC50 ranges are as follows: A<0.01 μM; B 0.01-0.05 μM; C>0.05 μM.

| SMILES | EC50 [1] | EC50 [2] |
| --- | --- | --- |
| COc1cc(C(=O)NC[C@](O)(c2cc(C(C)(C)O)c(F)c(-c3ccc(F)cc3)n2)C2CC2)cc2cc(C3CC3)nn12 (single isomer, unassigned) [Example 8] | < 1000 nM | < 10 nM |
| COc1cc(C(=O)NC[C@](O)(c2cc(C3(C(N)=O)CC3)cc(-c3ccc(F)c(Cl)c3F)n2)C2CC2)cc2cn(C3CC3)nc12 (single isomer, unassigned) [Example 26] | > 1000 nM | < 10 nM |
| Cc1nc2c(OC3CC3)cc(C(=O)NC[C@](O)(c3cc(C(C)(C)C(N)=O)c(F)c(-c4ccc(F)cc4)n3)C3CC3)cc2cc1Cl (single isomer, unassigned) [Example 44] | – | < 10 nM |
| Cc1nc2c(OC(F)F)cc(C(=O)NC[C@](O)(c3cc(C(O)(C(F)(F)F)C(F)(F)F)c(F)c(-c4ccc(F)cc4)n3)C3CC3)cc2cc1Br (single isomer, unassigned) [Example 46] | – | 10 to 50 nM |
| COc1cc(C(=O)NC[C@](O)(c2cc(C(O)(C(F)(F)F)C(F)(F)F)c(F)c(-c3ccc(F)cc3)n2)C2CC2)cc2cn(C3CC3)nc12 (single isomer, unassigned) [Example 47] | > 1000 nM | 10 to 50 nM |
| Cc1nc2c(OC3CC3)cc(C(=O)NC[C@](O)(c3cc(C(O)(C(F)(F)F)C(F)(F)F)c(F)c(-c4ccc(F)cc4)n3)C3CC3)cc2cc1Cl (single isomer, unassigned) [Example 48] | > 1000 nM | > 50 nM |
| Cc1nc2c(OC3CC3)cc(C(=O)NC[C@](O)(c3cc(C4(O)CC4)c(F)c(-c4ccc(F)cc4)n3)C3CC3)cc2cc1Cl (single isomer, unassigned) [Example 49] | > 1000 nM | < 10 nM |
| COc1cc(C(=O)NC[C@](O)(c2cc(C3(O)CC3)c(F)c(-c3ccc(F)cc3)n2)C2CC2)cc2cn(C3CC3)nc12 (single isomer, unassigned) [Example 50] | > 1000 nM | < 10 nM |
| Cc1nc2c(OC(F)F)cc(C(=O)NC[C@](O)(c3cc(C4(O)CC4)c(F)c(-c4ccc(F)cc4)n3)C3CC3)cc2cc1Br (single isomer, unassigned) [Example 51] | > 1000 nM | 10 to 50 nM |
| COc1cc(C(=O)NC[C@@](O)(c2ccccc2)c2cc(C(C)(C)O)c(Cl)c(-c3cc(Cl)c(F)cc3F)n2)cc2cn(C3CC3)nc12 (single isomer, unassigned) [Example 132] | < 1000 nM | < 10 nM |
| COc1cc(C(=O)NC[C@](O)(c2cc(C(C)(C)O)c(F)c(-c3ccc(F)cc3)n2)C2CC2)cc2cn(C3CC3)nc12 [Example 1] | < 1000 nM | < 10 nM |
| CC(C)(O)c1cc([C@@](O)(CNC(=O)c2ccc3nn(C4CC4)cc3c2)C2CC2)nc(-c2ccc(F)cc2)c1F [Example 3] | > 1000 nM | 10 to 50 nM |
| COc1cc(C(=O)NC[C@](O)(c2cc(C(C)(C)O)c(F)c(-c3ccc(F)cc3)n2)C2CC2)cc2cn(C3(F)CC3)nc12 [Example 4] | < 1000 nM | < 10 nM |
| CC(C)(O)c1cc([C@@](O)(CNC(=O)c2cc(OC3CC3)c3nn(C4(F)CC4)cc3c2)C2CC2)nc(-c2ccc(F)cc2)c1F [Example 5] | < 1000 nM | < 10 nM |
| CC(C)(O)c1cc([C@@](O)(CNC(=O)c2cc(Cl)c3nn(C4CC4)cc3c2)C2CC2)nc(-c2ccc(F)cc2)c1F [Example 6] | < 1000 nM | < 10 nM |

Now from value to compound:

| EC50 [1] | EC50 [2] | SMILES |
| --- | --- | --- |
| > 1000 nM | > 50 nM | CC(C)(O)c1cc([C@@](O)(CNC(=O)c2cc(F)c3nn(C(F)F)cc3c2)C2CC2)nc(-c2ccc(F)cc2)c1F (single isomer, unassigned) [Example 7] |
| > 1000 nM | 10 to 50 nM | COc1cc(C(=O)NC[C@](O)(c2cc(C3(C(N)=O)CC3)c(F)c(-c3cc(Cl)c(F)cc3F)n2)C2CC2)cc2cn(C(F)F)nc12 (single isomer, unassigned) [Example 9] |
| > 1000 nM | 10 to 50 nM | NC(=O)C1(c2cc([C@@](O)(CNC(=O)c3cc(OC4CC4)c4nn(C(F)F)cc4c3)C3CC3)nc(-c3cc(Cl)c(F)cc3F)c2F)CC1 (single isomer, unassigned) [Example 18] |
| > 1000 nM | < 10 nM | COc1cc(C(=O)NC[C@](O)(c2cc(C3(C(N)=O)CC3)c(F)c(-c3cc(Cl)c(F)cc3F)n2)C2CC2)cc2cc(Cl)c(C)nc12 (single isomer, unassigned) [Example 19] |
| > 1000 nM | 10 to 50 nM | COc1cc(C(=O)NC[C@](O)(c2cc(C3(C(N)=O)CC3)c(F)c(-c3ccc(F)c(Cl)c3F)n2)C2CC2)cc2cn(C3CC3)nc12 (single isomer, unassigned) [Example 20] |
| > 1000 nM | < 10 nM | COc1cc(C(=O)NC[C@](O)(c2cc(C3(C(N)=O)CC3)c(F)c(-c3ccc(F)c(Cl)c3F)n2)C2CC2)cc2cn(C(F)F)nc12 (single isomer, unassigned) [Example 21] |
| > 1000 nM | < 10 nM | COc1cc(C(=O)NC[C@](O)(c2cc(C3(C(N)=O)CC3)c(F)c(-c3ccc(F)c(Cl)c3F)n2)C2CC2)cc2cn(C3(F)CC3)nc12 (single isomer, unassigned) [Example 22] |
| > 1000 nM | 10 to 50 nM | COc1cc(C(=O)NC[C@](O)(c2cc(C3(C(N)=O)CC3)c(F)c(-c3ccc(F)c(Cl)c3F)n2)C2CC2)cc2cc(Cl)c(C)nc12 (single isomer, unassigned) [Example 23] |
| > 1000 nM | 10 to 50 nM | COc1cc(C(=O)NC[C@](O)(c2cc(C3(C(N)=O)CC3)cc(-c3cc(Cl)c(F)cc3F)n2)C2CC2)cc2cn(C3CC3)nc12 (single isomer, unassigned) [Example 24] |
| > 1000 nM | 10 to 50 nM | COc1cc(C(=O)NC[C@](O)(c2cc(C3(C(N)=O)CC3)cc(-c3cc(Cl)c(F)cc3F)n2)C2CC2)cc2cn(C(F)F)nc12 (single isomer, unassigned) [Example 25] |
| – | 10 to 50 nM | COc1cc(C(=O)NC[C@](O)(c2cc(C(F)(F)C(N)=O)c(F)c(-c3ccc(F)c(Cl)c3F)n2)C2CC2)cc2cn(C(F)F)nc12 (single isomer, unassigned) [Example 34] |
| – | > 50 nM | COc1cc(C(=O)NC[C@](O)(c2cc(C(F)(F)C(N)=O)c(F)c(-c3ccc(F)c(Cl)c3F)n2)C2CC2)cc2cc(Cl)c(C)nc12 (single isomer, unassigned) [Example 35] |
| – | 10 to 50 nM | NC(=O)C(F)(F)c1cc([C@@](O)(CNC(=O)c2cc(OC3CC3)c3nn(C4CC4)cc3c2)C2CC2)nc(-c2ccc(F)c(Cl)c2F)c1F (single isomer, unassigned) [Example 36] |
| – | > 50 nM | COc1cc(C(=O)NC[C@](O)(c2cc(C(F)(F)C(N)=O)c(F)c(-c3ccc(F)c(Cl)c3F)n2)C2CC2)ccc1OC[C@@H](C)O (single isomer, unassigned) [Example 37] |
| – | < 10 nM | COc1cc(C(=O)NC[C@](O)(c2cc(C(F)(F)C(N)=O)c(F)c(-c3cc(Cl)c(F)cc3F)n2)C2CC2)cc2cn(C3(F)CC3)nc12 (single isomer, unassigned) [Example 39] |
| – | 10 to 50 nM | COc1cc(C(=O)NC[C@](O)(c2cc(C(F)(F)C(N)=O)c(F)c(-c3cc(Cl)c(F)cc3F)n2)C2CC2)cc2cn(C(F)F)nc12 (single isomer, unassigned) [Example 41] |
| – | > 50 nM | COc1cc(C(=O)NC[C@](O)(c2cc(C(F)(F)C(N)=O)c(F)c(-c3cc(Cl)c(F)cc3F)n2)C2CC2)cc2cc(Cl)c(C)nc12 (single isomer, unassigned) [Example 42] |
| – | < 10 nM | COc1cc(C(=O)NC[C@](O)(c2cc(C(C)(C)C(N)=O)c(F)c(-c3ccc(F)cc3)n2)C2CC2)cc2cn(C3CC3)nc12 (single isomer, unassigned) [Example 43] |
| – | 10 to 50 nM | Cc1nc2c(OC(F)F)cc(C(=O)NC[C@](O)(c3cc(C(C)(C)C(N)=O)c(F)c(-c4ccc(F)cc4)n3)C3CC3)cc2cc1Br (single isomer, unassigned) [Example 45] |
| < 1000 nM | < 10 nM | COc1cc(C(=O)NC[C@](O)(c2cc(C(C)(C)O)c(F)c(-c3ccc(F)cc3)n2)C2CC2)cc2cn(C(F)F)nc12 [Example 2] |
| > 1000 nM | 10 to 50 nM | COc1cc(C(=O)NC[C@](O)(c2cc(C3(C#N)CC3)c(F)c(-c3cc(Cl)c(F)cc3F)n2)C2CC2)cc2cn(C(F)F)nc12 [Example 10] |
| – | 10 to 50 nM | COc1cc(C(=O)NC[C@](O)(c2cc(C(F)(F)C#N)c(F)c(-c3cc(Cl)c(F)cc3F)n2)C2CC2)cc2cn(C3(F)CC3)nc12 [Example 40] |
